# Laboratory results reported in ChEMBL document CHEMBL4004838, “Design and synthesis of novel phenyl -1, 4-beta-carboline-hybrid molecules as potential anticancer agents” (Eur J Med Chem, 2017).
# Experiments:
# Format in all cases: functional
# COLO 205 = test: Growth inhibition of human COLO205 cells assessed as cell growth at 1 uM incubated for 48 hrs by sulforhodamine B assay relative to control; conditions: COLO 205, 48 h, read-out: Activity
# UACC-257 [1] = test: Growth inhibition of human UACC257 cells assessed as cell growth at 0.01 uM incubated for 48 hrs by sulforhodamine B assay relative to control; conditions: UACC-257, 48 h, read-out: Activity
# 786-0 = test: Growth inhibition of human 786-0 cells assessed as cell growth at 1 uM incubated for 48 hrs by sulforhodamine B assay relative to control; conditions: 786-0, 48 h, read-out: Activity
# HCT-116 [2] = test: Growth inhibition of human HCT116 cells assessed as cell growth at 0.1 uM incubated for 48 hrs by sulforhodamine B assay relative to control; conditions: HCT-116, 48 h, read-out: Activity
# CCRF-CEM = test: Growth inhibition of human CCRF-CEM cells assessed as cell growth at 100 uM incubated for 48 hrs by sulforhodamine B assay relative to control; conditions: read-out: Activity
# UACC-62 [3] = test: Growth inhibition of human UACC62 cells incubated for 48 hrs by sulforhodamine B assay; conditions: UACC-62, 48 h
# HCC 2998 [4] = test: Growth inhibition of human HCC2998 cells incubated for 48 hrs by sulforhodamine B assay; conditions: HCC 2998, 48 h; for TGI: read-out: pTGI (converted)
# MDA-MB-231 = test: Growth inhibition of human MDA-MB-231 cells incubated for 48 hrs by sulforhodamine B assay; conditions: MDA-MB-231, 48 h
# OVCAR-3 [5] = test: Growth inhibition of human OVCAR3 cells incubated for 48 hrs by sulforhodamine B assay; conditions: OVCAR-3, 48 h
# SNB-19 = test: Growth inhibition of human SNB19 cells assessed as cell growth at 100 uM incubated for 48 hrs by sulforhodamine B assay relative to control; conditions: SNB-19, 48 h, read-out: Activity
# MDA-MB-435 = test: Growth inhibition of human MDA-MB-435 cells assessed as cell growth at 0.1 uM incubated for 48 hrs by sulforhodamine B assay relative to control; conditions: MDA-MB-435, 48 h, read-out: Activity
# HL-60(TB) = test: Growth inhibition of human HL-60(TB) cells assessed as cell growth at 1 uM incubated for 48 hrs by sulforhodamine B assay relative to control; conditions: HL-60, 48 h, read-out: Activity
# HCT-15 [6] = test: Growth inhibition of human HCT15 cells assessed as cell growth at 0.1 uM incubated for 48 hrs by sulforhodamine B assay relative to control; conditions: HCT-15, 48 h, read-out: Activity
# OVCAR-3 [7] = test: Growth inhibition of human OVCAR3 cells assessed as cell growth at 1 uM incubated for 48 hrs by sulforhodamine B assay relative to control; conditions: OVCAR-3, 48 h, read-out: Activity
# SF-295 = test: Growth inhibition of human SF295 cells assessed as cell growth at 1 uM incubated for 48 hrs by sulforhodamine B assay relative to control; conditions: SF-295, 48 h, read-out: Activity
# T47D [8] = test: Growth inhibition of human T47D cells assessed as cell growth at 0.01 uM incubated for 48 hrs by sulforhodamine B assay relative to control; conditions: read-out: Activity
# T47D [9] = test: Growth inhibition of human T47D cells assessed as cell growth at 100 uM incubated for 48 hrs by sulforhodamine B assay relative to control; conditions: read-out: Activity
# HCT-15 [10] = test: Growth inhibition of human HCT15 cells assessed as cell growth at 0.01 uM incubated for 48 hrs by sulforhodamine B assay relative to control; conditions: HCT-15, 48 h, read-out: Activity
# SK-MEL-2 [11] = test: Growth inhibition of human SK-MEL-2 cells assessed as cell growth at 1 uM incubated for 48 hrs by sulforhodamine B assay relative to control; conditions: SK-MEL-2, 48 h, read-out: Activity
# HT-29 = test: Growth inhibition of human HT-29 cells assessed as cell growth at 100 uM incubated for 48 hrs by sulforhodamine B assay relative to control; conditions: HT-29, 48 h, read-out: Activity
# SK-MEL-28 = test: Growth inhibition of human SK-MEL-28 cells assessed as cell growth at 100 uM incubated for 48 hrs by sulforhodamine B assay relative to control; conditions: SK-MEL-28, 48 h, read-out: Activity
# UACC-62 [12] = test: Growth inhibition of human UACC62 cells assessed as cell growth at 0.01 uM incubated for 48 hrs by sulforhodamine B assay relative to control; conditions: UACC-62, 48 h, read-out: Activity
# HOP-62 = test: Growth inhibition of human HOP62 cells assessed as cell growth at 0.01 uM incubated for 48 hrs by sulforhodamine B assay relative to control; conditions: HOP-62, 48 h, read-out: Activity
# HCT-116 [13] = test: Growth inhibition of human HCT116 cells incubated for 48 hrs by sulforhodamine B assay; conditions: HCT-116, 48 h
# UACC-62 [14] = test: Growth inhibition of human UACC62 cells assessed as cell growth at 100 uM incubated for 48 hrs by sulforhodamine B assay relative to control; conditions: UACC-62, 48 h, read-out: Activity
# HCC 2998 [15] = test: Growth inhibition of human HCC2998 cells assessed as cell growth at 1 uM incubated for 48 hrs by sulforhodamine B assay relative to control; conditions: HCC 2998, 48 h, read-out: Activity
# UACC-257 [16] = test: Growth inhibition of human UACC257 cells assessed as cell growth at 1 uM incubated for 48 hrs by sulforhodamine B assay relative to control; conditions: UACC-257, 48 h, read-out: Activity
# SK-MEL-2 [17] = test: Growth inhibition of human SK-MEL-2 cells assessed as cell growth at 0.1 uM incubated for 48 hrs by sulforhodamine B assay relative to control; conditions: SK-MEL-2, 48 h, read-out: Activity
# PC-3 = test: Growth inhibition of human PC3 cells assessed as cell growth at 0.01 uM incubated for 48 hrs by sulforhodamine B assay relative to control; conditions: PC-3, 48 h, read-out: Activity
# RXF 393 = test: Growth inhibition of human RXF393 cells assessed as cell growth at 0.1 uM incubated for 48 hrs by sulforhodamine B assay relative to control; conditions: RXF 393, 48 h, read-out: Activity
# MCF7 = test: Growth inhibition of human MCF7 cells assessed as cell growth at 100 uM incubated for 48 hrs by sulforhodamine B assay relative to control; conditions: MCF7, 48 h, read-out: Activity
# [18] = read-out: LC50 (the source's name)
# [19] = read-out: pLC50 (the source's name) (converted)
structure (smiles),measurement,setting,value
c1ccc2[nH]c(-c3ccc(-c4nccc5c4[nH]c4ccccc45)cc3)nc2c1,growth at 1 µM,COLO 205,93%
same,growth at 0.01 µM,UACC-257 [1],93%
same,growth at 1 µM,786-0,89%
same,growth at 0.1 µM,HCT-116 [2],96%
same,growth at 100 µM,CCRF-CEM,29%
same,GI50,UACC-62 [3]; read-out: GI50,1.6 µM
same,CC50,UACC-62 [3]; [18],7.62 µM
same,TGI,UACC-62 [3]; read-out: TGI,3.49 µM
same,GI50,UACC-62 [3]; read-out: pGI50 (converted),1.58 µM
same,CC50,UACC-62 [3]; [19],7.59 µM
same,TGI,UACC-62 [3]; read-out: pTGI (converted),3.47 µM
same,GI50,HCC 2998 [4]; read-out: GI50,3.96 µM
same,LC50,HCC 2998 [4]; read-out: LC50,5.31 µM
same,GI50,HCC 2998 [4]; read-out: pGI50 (converted),3.98 µM
same,LC50,HCC 2998 [4]; read-out: pLC50 (converted),53.7 µM
same,TGI,HCC 2998 [4],15.8 µM
same,GI50,MDA-MB-231; read-out: GI50,2.39 µM
same,TGI,MDA-MB-231; read-out: TGI,5.83 µM
same,GI50,MDA-MB-231; read-out: pGI50 (converted),2.4 µM
same,CC50,MDA-MB-231; [19],> 100 µM
same,TGI,MDA-MB-231; read-out: pTGI (converted),5.89 µM
same,GI50,OVCAR-3 [5]; read-out: GI50,1.8 µM
same,CC50,OVCAR-3 [5]; [18],7.36 µM
same,TGI,OVCAR-3 [5]; read-out: TGI,3.64 µM
same,GI50,OVCAR-3 [5]; read-out: pGI50 (converted),1.82 µM
same,CC50,OVCAR-3 [5]; [19],7.41 µM
same,TGI,OVCAR-3 [5]; read-out: pTGI (converted),3.63 µM
same,growth at 100 µM,SNB-19,29%
same,growth at 0.1 µM,MDA-MB-435,93%
same,growth at 1 µM,HL-60(TB),94%
same,growth at 0.1 µM,HCT-15 [6],97%
same,growth at 1 µM,OVCAR-3 [7],92%
same,growth at 1 µM,SF-295,94%
same,growth at 0.01 µM,T47D [8],88%
same,growth at 100 µM,T47D [9],53%
same,growth at 0.01 µM,HCT-15 [10],93%
same,growth at 1 µM,SK-MEL-2 [11],94%
same,growth at 100 µM,HT-29,64%
same,growth at 100 µM,SK-MEL-28,69%
same,growth at 0.01 µM,UACC-62 [12],89%
same,growth at 0.01 µM,HOP-62,86%
same,CC50,HCT-116 [13]; [18],4.43 µM
same,GI50,HCT-116 [13]; read-out: pGI50 (converted),2.82 µM
same,CC50,HCT-116 [13]; [19],44.7 µM
same,TGI,HCT-116 [13]; read-out: pTGI (converted),10.5 µM
same,growth at 100 µM,UACC-62 [14],57%
same,growth at 1 µM,HCC 2998 [15],96%
same,growth at 1 µM,UACC-257 [16],96%
same,growth at 0.1 µM,SK-MEL-2 [17],97%
same,growth at 0.01 µM,PC-3,98%
same,growth at 0.1 µM,RXF 393,108%
same,growth at 100 µM,MCF7,72%
c1ccc2c3c([nH]c2c1)C(c1ccc(C2NCCc4c2[nH]c2ccccc42)cc1)NCC3 (racemic),growth at 1 µM,COLO 205,48%
same,growth at 0.01 µM,UACC-257 [1],101%
same,growth at 1 µM,786-0,92%
same,growth at 0.1 µM,HCT-116 [2],89%
same,growth at 100 µM,CCRF-CEM,68%
same,CC50,UACC-62 [3]; [18],5.15 µM
same,GI50,UACC-62 [3]; read-out: pGI50 (converted),0.741 µM
same,CC50,UACC-62 [3]; [19],5.13 µM
same,TGI,UACC-62 [3]; read-out: pTGI (converted),2.14 µM
same,GI50,HCC 2998 [4]; read-out: pGI50 (converted),0.275 µM
same,TGI,HCC 2998 [4],1.29 µM
same,GI50,MDA-MB-231; read-out: GI50,2.96 µM
same,CC50,MDA-MB-231; [18],3.64 µM
same,TGI,MDA-MB-231; read-out: TGI,9.36 µM
same,GI50,MDA-MB-231; read-out: pGI50 (converted),0.295 µM
same,CC50,MDA-MB-231; [19],3.63 µM
same,GI50,OVCAR-3 [5]; read-out: GI50,1.24 µM
same,CC50,OVCAR-3 [5]; [18],5.43 µM
same,TGI,OVCAR-3 [5]; read-out: TGI,2.6 µM
same,GI50,OVCAR-3 [5]; read-out: pGI50 (converted),1.23 µM
same,CC50,OVCAR-3 [5]; [19],5.5 µM
same,TGI,OVCAR-3 [5]; read-out: pTGI (converted),2.57 µM
same,growth at 100 µM,SNB-19,88%
same,growth at 0.1 µM,MDA-MB-435,99%
same,growth at 1 µM,HL-60(TB),57%
same,growth at 0.1 µM,HCT-15 [6],95%
same,growth at 1 µM,OVCAR-3 [7],65%
same,growth at 1 µM,SF-295,84%
same,growth at 0.01 µM,T47D [8],82%
same,growth at 100 µM,T47D [9],-72%
same,growth at 0.01 µM,HCT-15 [10],94%
same,growth at 1 µM,SK-MEL-2 [11],86%
same,growth at 100 µM,HT-29,90%
same,growth at 100 µM,SK-MEL-28,93%
same,growth at 0.01 µM,UACC-62 [12],96%
same,growth at 0.01 µM,HOP-62,84%
same,GI50,HCT-116 [13]; read-out: GI50,1.7 µM
same,CC50,HCT-116 [13]; [18],6.59 µM
same,TGI,HCT-116 [13]; read-out: TGI,3.35 µM
same,GI50,HCT-116 [13]; read-out: pGI50 (converted),0.17 µM
same,CC50,HCT-116 [13]; [19],0.661 µM
same,growth at 100 µM,UACC-62 [14],93%
same,growth at 1 µM,HCC 2998 [15],10%
same,growth at 1 µM,UACC-257 [16],103%
same,growth at 0.1 µM,SK-MEL-2 [17],94%
same,growth at 0.01 µM,PC-3,96%
same,growth at 0.1 µM,RXF 393,101%
same,growth at 100 µM,MCF7,-74%
